Values belong to the molecule of their own block, whether it stands above or below them.
Assays:
[1] = target: T1, HYPE (Homo sapiens, UniProt Q9BVA6, E234G); assay: differential scanning fluorimetry (thermal shift), […] ligand; assay type: binding
T1 construct: gene FICD; 172–434
T1 sequence (Q9BVA6 172-434 E234G): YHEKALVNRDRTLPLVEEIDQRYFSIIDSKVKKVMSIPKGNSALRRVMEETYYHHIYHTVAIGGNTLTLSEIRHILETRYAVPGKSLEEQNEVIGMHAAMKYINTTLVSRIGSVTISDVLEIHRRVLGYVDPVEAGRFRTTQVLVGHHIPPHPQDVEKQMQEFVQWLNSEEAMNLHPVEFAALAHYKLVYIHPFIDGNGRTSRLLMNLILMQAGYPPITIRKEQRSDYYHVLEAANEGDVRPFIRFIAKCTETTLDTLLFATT

[2] = target: T2, HYPE (Homo sapiens, UniProt Q9BVA6, E234G); assay: crystal structure ([…] Å); thermal shift; assay type: binding; set-up: gene FICD; TPR-motifs, linker and FIC domain (lacking first 102 residues)
T2 sequence (Q9BVA6 103-445 E234G): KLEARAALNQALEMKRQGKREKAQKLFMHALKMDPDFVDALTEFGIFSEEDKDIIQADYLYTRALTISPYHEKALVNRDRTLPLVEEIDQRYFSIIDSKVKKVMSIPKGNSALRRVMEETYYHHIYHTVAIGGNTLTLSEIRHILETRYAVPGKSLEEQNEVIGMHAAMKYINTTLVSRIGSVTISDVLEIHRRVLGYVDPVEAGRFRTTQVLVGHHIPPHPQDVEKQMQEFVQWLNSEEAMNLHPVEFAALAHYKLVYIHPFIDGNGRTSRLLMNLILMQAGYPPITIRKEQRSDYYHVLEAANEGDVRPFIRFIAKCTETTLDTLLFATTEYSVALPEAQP

[3] = target: wild-type HYPE construct lacking the first 102 amino-acid residues (construct used for crystallization) (human) (UniProt Q9BVA6); assay: SAXS; small angle X-ray scattering of soluble HYPE constructs in solution; methods in Supplemental Experimental Procedures
[4] = target: T3, HYPE (Homo sapiens, UniProt Q9BVA6); assay: ITC; crystal structure; thermal shift; assay type: binding
T3 construct: gene FICD; residues 103-445
T3 sequence (Q9BVA6 103-445): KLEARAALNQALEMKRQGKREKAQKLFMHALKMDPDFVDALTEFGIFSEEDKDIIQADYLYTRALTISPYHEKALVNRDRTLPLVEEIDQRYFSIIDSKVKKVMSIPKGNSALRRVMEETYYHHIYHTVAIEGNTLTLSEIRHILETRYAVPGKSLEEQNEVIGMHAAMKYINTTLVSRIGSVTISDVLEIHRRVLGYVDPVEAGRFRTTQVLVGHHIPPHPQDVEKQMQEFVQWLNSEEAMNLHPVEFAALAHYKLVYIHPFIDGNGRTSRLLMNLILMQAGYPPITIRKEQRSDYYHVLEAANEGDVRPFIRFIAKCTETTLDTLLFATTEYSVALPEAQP

[5] = target: T2, HYPE; assay: ITC; crystal structure; thermal shift; assay type: binding; set-up: gene FICD; residues 103-445
[6] = target: the molecule itself; assay: SEC; analytical gel filtration of purified HYPE constructs

Molecule: Nc1nc2c(ncn2[C@@H]2O[C@H](COP(=O)(O)OP(=O)(O)OP(=O)(O)O)[C@@H](O)[C@H]2O)c(=O)[nH]1 [guanosine-5'-triphosphate]
differential scanning fluorimetry (thermal shift), 200 μM ligand [1]: showed similar binding of ATP and guanosine-5'-triphosphate

Molecule: Nc1ncnc2c1ncn2C1OC(COP(=O)(O)OP(=O)(O)OP(=O)(O)O)C(O)C1O (centres unmarked) [ATP]
crystal structure (2.7 Å); thermal shift [2]: we have also obtained structures with the ATP cofactor bound to an E234G variant

stoichiometry N [3]: 2
Molecule: wild-type HYPE construct lacking the first 102 amino-acid residues (construct used for crystallization) (from UniProt Q9BVA6 103-458) (domain or fragment)

Molecule: O=c1ccn([C@@H]2O[C@H](CO[P@@](=O)(O)O[P@@](=O)(O)OP(=O)(O)O)[C@@H](O)[C@H]2O)c(=O)[nH]1 (stereo in doubt) [uridine triphosphate]
differential scanning fluorimetry (thermal shift), 200 μM ligand [1]: a less strong binding of cytidine triphosphate and uridine triphosphate (Figure 6A)

Kd [4]: 1500 nM
Kd [5]: 160 nM
Molecule: Nc1ncnc2c1ncn2[C@@H]1O[C@H](COP(=O)(O)OP(=O)(O)O)[C@@H](O)[C@H]1O [ADP]

B1: HYPE variant (103–434), containing TPR-motifs, linker, and FIC domain (domain or fragment, human, UniProt Q9BVA6 103-434, looked up)
chain: KLEARAALNQALEMKRQGKREKAQKLFMHALKMDPDFVDALTEFGIFSEEDKDIIQADYLYTRALTISPYHEKALVNRDRTLPLVEEIDQRYFSIIDSKVKKVMSIPKGNSALRRVMEETYYHHIYHTVAIEGNTLTLSEIRHILETRYAVPGKSLEEQNEVIGMHAAMKYINTTLVSRIGSVTISDVLEIHRRVLGYVDPVEAGRFRTTQVLVGHHIPPHPQDVEKQMQEFVQWLNSEEAMNLHPVEFAALAHYKLVYIHPFIDGNGRTSRLLMNLILMQAGYPPITIRKEQRSDYYHVLEAANEGDVRPFIRFIAKCTETTLDTLLFATT
notes: human HYPE (FICD), residues 103-434: TPR-motifs (105-135, 140-170), linker (170-215), FIC domain (215-432); cloned into pOPINS; wild type; also called HYPE (103-434); source: E. coli C41(DE3), purified (Ni2+ chelating, Q-sepharose, gel filtration)
stoichiometry N [6]: 2

B2: HYPE (172–445), containing the linker helix and FIC domain (domain or fragment, human, UniProt Q9BVA6 172-445, looked up)
chain: YHEKALVNRDRTLPLVEEIDQRYFSIIDSKVKKVMSIPKGNSALRRVMEETYYHHIYHTVAIEGNTLTLSEIRHILETRYAVPGKSLEEQNEVIGMHAAMKYINTTLVSRIGSVTISDVLEIHRRVLGYVDPVEAGRFRTTQVLVGHHIPPHPQDVEKQMQEFVQWLNSEEAMNLHPVEFAALAHYKLVYIHPFIDGNGRTSRLLMNLILMQAGYPPITIRKEQRSDYYHVLEAANEGDVRPFIRFIAKCTETTLDTLLFATTEYSVALPEAQP
notes: human HYPE (FICD), residues 172-445: linker helix and FIC domain; cloned into pOPINS; also called ΔTPR; HYPE lacking TPR-motifs; source: E. coli C41(DE3), purified (Ni2+ chelating, Q-sepharose, gel filtration)
binding result [6]: binds

Source: paper PMC4342408 (Structure(London, England:1993), 2014)
